Results on three compounds are retold here after US10053498B2, “Compositions comprising serum albumin and p53 peptides fusion proteins” (University of the Sciences of Philadelphia, priority 2014, dated 2018).

For data set [1] the following is noted: plasma protein; cited from earlier work.
Data set [2] has as its system SJSA-1 cells. Nature of the data set: CyQuant cytotoxicity assay in SJSA-1 cells. Type of data set: cell-based. Conditions: 24 hrs, relative to rHSA-treated cells; nutlin 10 μM (FIG. 13).
Procedure: Osteosarcoma SJSA-1 cells (ATCC) were grown in RPMI media containing 10% FBS. Cytotoxicity assays were performed using SJSA-1 cells plated in 24- or 96-well plates at 20,000 or 5,000 cells per well, respectively. Cells were allowed to attach overnight. All treatments were added on day 2 in RPMI media containing 1% FBS plus the equivalent amounts of 1×PBS buffer. Unless otherwise indicated, cells were exposed to treatment media for 24 hours, at which time cytotoxicity was measured using the fluorometric CyQuant assay (Invitrogen, C35006) or the fluorometric Homogeneous Caspase assay (Roche, 03005372001), according to the manufacturer's instructions, for detection of apoptosis. All results were plotted relative to rHSA- or where indicated, rHSA/FA-FITC-treated cells.
The test system of another data set is p53. Kind of data set: Western blot and densitometry of p53 protein in SJSA-1 cells. Type of data set: cell-based. Conditions: 10 μM, 24 hrs, densitometry. Here is the method: (§1) SJSA-1 cells were lysed in buffer containing 20 mM Tris-HCl, 50 mM NaCl, 0.05% Triton X-100, and protease inhibitor cocktail. […] Mixtures were then allowed to incubate for 1 hour at RT.

The test system of another data set is MDM2. Nature of the data set: Western blot and densitometry of MDM2 protein in SJSA-1 cells. Type of data set: cell-based. Conditions: 10 μM, 24 hrs, densitometry. Here is the method: as §1
For data set [3], the system named is SJSA-1 cells. Nature of the data set: Cell death on co-treatment with MTX in SJSA-1 cells. Type of data set: cell-based. Conditions: co-treatment with MTX versus single agents (FIG. 14A). The procedure: As shown above, HSA-PMI may induce apoptosis by disrupting MDM2/MDMX-p53 interaction and/or by inducing the release of BAK from MCL-1 or BCL-Xl. […] To test this hypothesis, SJSA cells were treated with MTX alone, HSA-PMI/nutlin alone, or MTX and HSA-PMI/nutlin.

The subject of a further data set is MDA-MB-231 cells. Kind of data set: CyQuant cytotoxicity assay in MDA-MB-231 cells. Conditions: 24 hrs, relative to rHSA-treated cells; nutlin 10 μM, ABT-263 2.5 μM (FIG. 13). In kind it is cell-based.
For a further data set, the system named is Hela cells. Kind of data set: CyQuant cytotoxicity assay in Hela cells. As to conditions: 24 hrs, relative to rHSA-treated cells; nutlin 10 μM, ABT-263 2.5 μM (FIG. 13). Type of data set: cell-based.

Chain of MDM2 (Q00987 whole entry): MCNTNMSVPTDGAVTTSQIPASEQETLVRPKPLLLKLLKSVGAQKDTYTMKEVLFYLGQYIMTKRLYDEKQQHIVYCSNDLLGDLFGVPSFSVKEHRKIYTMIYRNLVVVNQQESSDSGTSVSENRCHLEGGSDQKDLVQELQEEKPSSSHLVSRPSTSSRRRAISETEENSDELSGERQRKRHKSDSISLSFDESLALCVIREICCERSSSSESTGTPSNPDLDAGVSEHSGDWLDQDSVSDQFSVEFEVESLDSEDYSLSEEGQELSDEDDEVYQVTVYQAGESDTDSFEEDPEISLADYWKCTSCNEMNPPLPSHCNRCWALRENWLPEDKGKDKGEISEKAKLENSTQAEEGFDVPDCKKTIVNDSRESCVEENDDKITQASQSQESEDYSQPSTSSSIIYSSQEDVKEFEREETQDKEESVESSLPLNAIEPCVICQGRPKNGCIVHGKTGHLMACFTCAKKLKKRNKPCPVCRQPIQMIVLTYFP
Procedure for Hela cells: (§2) Cytotoxicities were measured by CyQuant Assay and normalized according to rHSA-treated cells.
Procedure for MDA-MB-231 cells: as §2

As to “HSA: human serum albumin, the most abundant plasma protein”, in data set [1], the average half-life was 19 days.
nutlin: in the data set with SJSA-1 cells [2], the “cell death in SJSA-1 cells (p53 positive)” value was “killed”. The “increase in p53 protein” value in the data set with p53 is recorded as 11.5 fold. Moreover, the “change in MDM2 protein expression” value with MDM2 is 5 fold. In the data set with SJSA-1 cells [3], the “cell death in combination with MTX” value was “not additive”.
In the case of `CC1(C)CCC(c2ccc(Cl)cc2)=C(CN2CCN(c3ccc(C(=O)NS(=O)(=O)c4ccc(N[C@H](CCN5CCOCC5)CSc5ccccc5)c(S(=O)(=O)C(F)(F)F)c4)cc3)CC2)C1` [ABT-263], the “cell death in MDA-MB-231 cells (p53 negative)” value in the data set on MDA-MB-231 cells is “killed”. The “cell death in Hela cells (p53 under-expressing)” value in the data set on Hela cells was “killed”.
